Legend:
Assay in all cases: relative viability (nuclei count vs DMSO), 5 days (fraction); higher = more cells survive
[1] = compound: C(C(=O)C(=O)O)Br [Bromopyruvate] + Cc1cc(Nc2cc(N3CCN(C)CC3)nc(Sc3ccc(NC(=O)C4CC4)cc3)n2)n[nH]1 [Tozasertib] (partner 0.1 µM)
Summary of the method: (§1)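 After 5 days of treatment, lung cancer cells in 1536-well plates were fixed and stained in a single step (final 0.05% Triton X-100, 1% formaldehyde, 1 ug/ml Hoechst) and their nuclei counted on 4× images. Treatment had been applied by pin tool the day after seeding as one drug alone or as a fixed anchor-drug dose with five library-drug doses (not always all listed) in √10 steps. Relative viability is the nuclei count of treated wells divided by that of vehicle wells, and values are medians of duplicate plates.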

[2] = compound: CC(O)(CS(=O)(=O)c1ccc(F)cc1)C(=O)Nc1ccc(C#N)c(C(F)(F)F)c1 [Bicalutamide] + COc1cc2c(Oc3ccc(NC(=O)C4(C(=O)Nc5ccc(F)cc5)CC4)cc3F)ccnc2cc1OCCCN1CCOCC1 [Foretinib] (partner 0.25 µM)
Summary of the method: as §1

[3] = compound: CC(O)(CS(=O)(=O)c1ccc(F)cc1)C(=O)Nc1ccc(C#N)c(C(F)(F)F)c1 [Bicalutamide] + Cc1nc(NC(=O)N2CCC[C@H]2C(N)=O)sc1-c1ccnc(C(C)(C)C(F)(F)F)c1 [Alpelisib] (partner 2 µM)
Summary of the method: as §1

[4] = compound: C(C(=O)C(=O)O)Br [Bromopyruvate] + C[C@]1(O)C[C@@H](c2nc(-c3ccc4ccc(-c5ccccc5)nc4c3)c3c(N)nccn32)C1 [Linsitinib] (partner 1 µM)
Summary of the method: as §1

**Q.** For UMC-11, which relative viability ([1]; first compound 1 µM) is on record?
**A.** 0.201

**Q.** And the relative viability ([1]; first compound 3.162 µM)?
**A.** 0.196

**Q.** What about the relative viability ([1]; first compound 10 µM) of the same cell line?
**A.** 0.188

**Q.** What about the relative viability ([1]; first compound 31.62 µM) of the same cell line?
**A.** 0.208

**Q.** And the relative viability ([1]; first compound 100 µM)?
**A.** 0.213

**Q.** What about the relative viability ([2]; first compound 0.08 µM) of the same cell line?
**A.** 1.11

**Q.** What about the relative viability ([2]; first compound 0.253 µM) of the same cell line?
**A.** 0.966

**Q.** And the relative viability ([2]; first compound 0.8 µM)?
**A.** 1.08

**Q.** What about the relative viability ([2]; first compound 2.53 µM) of the same cell line?
**A.** 1.05

**Q.** And the relative viability ([3]; first compound 0.08 µM)?
**A.** 1.05

**Q.** And the relative viability ([3]; first compound 0.253 µM)?
**A.** 0.9

**Q.** What about the relative viability ([3]; first compound 0.8 µM) of the same cell line?
**A.** 1.12

**Q.** And the relative viability ([3]; first compound 2.53 µM)?
**A.** 0.976

**Q.** And the relative viability ([4]; first compound 1 µM)?
**A.** 1.03

**Q.** And the relative viability ([4]; first compound 3.162 µM)?
**A.** 1.08

**Q.** And the relative viability ([4]; first compound 10 µM)?
**A.** 0.884

**Q.** And the relative viability ([4]; first compound 31.62 µM)?
**A.** 0.987

**Q.** What about the relative viability ([4]; first compound 100 µM) of the same cell line?
**A.** 1.03

Source: the supplement of paper PMC10307832
